Measured values published in the NIST ThermoML archive (doi:10.1021/je800628a).
± gives the expanded uncertainty stated by the source.

Columns and labels:
[1] = Crystal; DTA
[2] = Molar enthalpy of transition or fusion; details: Crystal; DSC

Normal melting temperature [1]: 83.0 ± 1.1 °C
Molar enthalpy of transition or fusion [2]: 4.26 ± 0.131 kcal/mol
SMILES: c1ccc2ccccc2c1 [naphthalene]
